In ChEMBL document CHEMBL1146356, “Lactotriaose-containing carbosilane dendrimers: syntheses and lectin-binding activities” (Bioorg Med Chem, 2007):

Key:
[1] = test system: Triticum aestivum; assay: Binding affinity to wheat germ agglutinin
[2] = test system: Triticum aestivum; assay: Binding affinity to wheat germ agglutinin relative to Monovalent

Row | Ka [1] | Activity [2] | SMILES
1 | 1.1 10^3/M | – | CC(=O)N[C@H]1[C@H](O[C@H]2[C@@H](O)[C@@H](CO)O[C@@H](O[C@@H]3[C@@H](O)[C@H](O)C(O)O[C@H]3CO)[C@@H]2O)O[C@H](CO)[C@@H](O)[C@@H]1O (stereo not given in full)
2 | 1.3 10^6/M | 1200 | CC(=O)N[C@H]1[C@H](O[C@H]2[C@@H](O)[C@@H](CO)O[C@@H](O[C@@H]3[C@@H](O)[C@H](O)C(OCCCCCSCCC[Si](CCCSCCCCCOC4O[C@@H](CO)[C@H](O[C@@H]5O[C@H](CO)[C@H](O)[C@H](O[C@@H]6O[C@H](CO)[C@@H](O)[C@H](O)[C@H]6NC(C)=O)[C@H]5O)[C@@H](O)[C@@H]4O)(CCCSCCCCCOC4O[C@@H](CO)[C@H](O[C@@H]5O[C@H](CO)[C@H](O)[C@H](O[C@@H]6O[C@H](CO)[C@@H](O)[C@H](O)[C@H]6NC(C)=O)[C@H]5O)[C@@H](O)[C@@H]4O)CCC[Si](CCCSCCCCCOC4O[C@@H](CO)[C@H](O[C@@H]5O[C@H](CO)[C@H](O)[C@H](O[C@@H]6O[C@H](CO)[C@@H](O)[C@H](O)[C@H]6NC(C)=O)[C@H]5O)[C@@H](O)[C@@H]4O)(CCCSCCCCCOC4O[C@@H](CO)[C@H](O[C@@H]5O[C@H](CO)[C@H](O)[C@H](O[C@@H]6O[C@H](CO)[C@@H](O)[C@H](O)[C@H]6NC(C)=O)[C@H]5O)[C@@H](O)[C@@H]4O)CCC[Si](CCSCCCCCOC4O[C@@H](CO)[C@H](O[C@@H]5O[C@H](CO)[C@H](O)[C@H](O[C@@H]6O[C@H](CO)[C@@H](O)[C@H](O)[C@H]6NC(C)=O)[C@H]5O)[C@@H](O)[C@@H]4O)(CCSCCCCCOC4O[C@@H](CO)[C@H](O[C@@H]5O[C@H](CO)[C@H](O)[C@H](O[C@@H]6O[C@H](CO)[C@@H](O)[C@H](O)[C@H]6NC(C)=O)[C@H]5O)[C@@H](O)[C@@H]4O)CCSCCCCCOC4O[C@@H](CO)[C@H](O[C@@H]5O[C@H](CO)[C@H](O)[C@H](O[C@@H]6O[C@H](CO)[C@@H](O)[C@H](O)[C@H]6NC(C)=O)[C@H]5O)[C@@H](O)[C@@H]4O)O[C@H]3CO)[C@@H]2O)O[C@H](CO)[C@@H](O)[C@@H]1O (stereo not given in full)
3 | 2.8 10^6/M | 2500 | CC(=O)N[C@H]1[C@H](O[C@H]2[C@@H](O)[C@@H](CO)O[C@@H](O[C@@H]3[C@@H](O)[C@H](O)C(OCCCCCSCCC[Si](CCCSCCCCCOC4O[C@@H](CO)[C@H](O[C@@H]5O[C@H](CO)[C@H](O)[C@H](O[C@@H]6O[C@H](CO)[C@@H](O)[C@H](O)[C@H]6NC(C)=O)[C@H]5O)[C@@H](O)[C@@H]4O)(CCCSCCCCCOC4O[C@@H](CO)[C@H](O[C@@H]5O[C@H](CO)[C@H](O)[C@H](O[C@@H]6O[C@H](CO)[C@@H](O)[C@H](O)[C@H]6NC(C)=O)[C@H]5O)[C@@H](O)[C@@H]4O)CCC[Si](C)(C)CCC[Si](CCCSCCCCCOC4O[C@@H](CO)[C@H](O[C@@H]5O[C@H](CO)[C@H](O)[C@H](O[C@@H]6O[C@H](CO)[C@@H](O)[C@H](O)[C@H]6NC(C)=O)[C@H]5O)[C@@H](O)[C@@H]4O)(CCCSCCCCCOC4O[C@@H](CO)[C@H](O[C@@H]5O[C@H](CO)[C@H](O)[C@H](O[C@@H]6O[C@H](CO)[C@@H](O)[C@H](O)[C@H]6NC(C)=O)[C@H]5O)[C@@H](O)[C@@H]4O)CCCSCCCCCOC4O[C@@H](CO)[C@H](O[C@@H]5O[C@H](CO)[C@H](O)[C@H](O[C@@H]6O[C@H](CO)[C@@H](O)[C@H](O)[C@H]6NC(C)=O)[C@H]5O)[C@@H](O)[C@@H]4O)O[C@H]3CO)[C@@H]2O)O[C@H](CO)[C@@H](O)[C@@H]1O (stereo not given in full)
